For series [1], the target named is Cholinesterase (Equus caballus, UniProt P81908). Nature of the series: Inhibition of equine serum BuChE using butyrylthiocholine iodide as substrate preincubated for 5 mins followed by substrate addition and measured every min for 10 mins by Ellman's method. The class given is cell-free.
The target in series [2] is T1, Acetylcholinesterase (Homo sapiens, UniProt P22303). Nature of the series: Inhibition of human erythrocyte AChE at 10 uM using acetylthiocholine iodide as substrate preincubated for 5 mins followed by substrate addition and measured every min for 10 mins by Ellman's method relative to control. The settings on record: time 15.0 min.
T1 sequence (P22303 whole entry): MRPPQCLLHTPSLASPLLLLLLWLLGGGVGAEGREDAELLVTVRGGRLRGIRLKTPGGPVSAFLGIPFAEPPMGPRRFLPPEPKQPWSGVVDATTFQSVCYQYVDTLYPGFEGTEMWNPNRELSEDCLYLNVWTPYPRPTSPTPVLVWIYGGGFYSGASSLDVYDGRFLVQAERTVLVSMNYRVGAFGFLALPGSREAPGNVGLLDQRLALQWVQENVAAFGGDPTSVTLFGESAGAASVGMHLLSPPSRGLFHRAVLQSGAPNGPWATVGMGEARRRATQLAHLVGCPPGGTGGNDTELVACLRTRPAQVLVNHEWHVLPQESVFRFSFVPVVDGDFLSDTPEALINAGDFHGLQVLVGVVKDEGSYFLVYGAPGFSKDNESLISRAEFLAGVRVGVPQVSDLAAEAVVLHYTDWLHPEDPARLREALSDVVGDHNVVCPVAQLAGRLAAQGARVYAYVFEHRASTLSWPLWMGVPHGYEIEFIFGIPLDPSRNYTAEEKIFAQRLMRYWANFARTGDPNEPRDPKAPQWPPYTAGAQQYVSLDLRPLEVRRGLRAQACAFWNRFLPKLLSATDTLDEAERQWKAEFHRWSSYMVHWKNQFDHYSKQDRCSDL
The target in series [3] is T2, Dual specificity tyrosine-phosphorylation-regulated kinase 1A (Homo sapiens, UniProt Q13627). Kind of series: Inhibition of human DYRK1A using RRRFRPASPLRGPPK as substrate incubated for 40 mins in presence of Mg/[gamma-33P]-ATP by scintillation counting method.
The target in series [4] is T3, Dual specificity protein kinase CLK1 (Homo sapiens, UniProt P49759). Nature of the series: Inhibition of human CLK1 using ERMRPRKRQGSVRRRV as substrate incubated for 40 mins in presence of Mg/[gamma-33P]-ATP by scintillation counting method.
Target sequence in this assay (P49759 whole entry): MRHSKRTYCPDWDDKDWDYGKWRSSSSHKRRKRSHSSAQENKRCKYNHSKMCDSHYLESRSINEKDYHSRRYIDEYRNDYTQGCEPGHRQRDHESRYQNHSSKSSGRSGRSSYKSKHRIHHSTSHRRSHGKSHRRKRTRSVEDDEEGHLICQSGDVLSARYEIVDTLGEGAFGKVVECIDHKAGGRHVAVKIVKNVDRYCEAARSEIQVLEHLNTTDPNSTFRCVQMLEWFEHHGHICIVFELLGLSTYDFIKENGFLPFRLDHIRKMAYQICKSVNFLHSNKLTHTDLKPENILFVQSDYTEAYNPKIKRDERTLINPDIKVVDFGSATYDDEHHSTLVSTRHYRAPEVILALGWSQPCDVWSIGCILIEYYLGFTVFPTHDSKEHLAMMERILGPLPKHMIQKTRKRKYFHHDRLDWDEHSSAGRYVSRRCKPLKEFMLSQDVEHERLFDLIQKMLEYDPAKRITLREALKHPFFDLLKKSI
The target in series [5] is T2, Dual specificity tyrosine-phosphorylation-regulated kinase 1A. Nature of the series: Inhibition of human DYRK1A at 10 uM using RRRFRPASPLRGPPK as substrate incubated for 40 mins in presence of Mg/[gamma-33P]-ATP by scintillation counting method relative to control.
In series [6] the target is T3, Dual specificity protein kinase CLK1. Kind of series: Inhibition of human CLK1 at 10 uM using ERMRPRKRQGSVRRRV as substrate incubated for 40 mins in presence of Mg/[gamma-33P]-ATP by scintillation counting method relative to control.
Target sequence in this assay (P49759 whole entry, looked up): as the sequence (P49759 whole entry) above
Series [7] has as its target T1, Acetylcholinesterase. Nature of the series: Inhibition of human erythrocyte AChE using acetylthiocholine iodide as substrate preincubated for 5 mins followed by substrate addition and measured every min for 10 mins by Ellman's method.
Series [8] can be described thus: Chromatographic hydrophobicity index, logD of the compound at pH 7.4 by reversed phase HPLC analysis. The settings on record: buffer. In kind it is physicochemical.
Series [9] can be described thus: Solubility of the compound in PBS at pH 7.4 by HPLC analysis. In kind it is physicochemical. The settings on record: buffer.
The target in series [10] is Cholinesterase (Equus caballus) (UniProt P81908). Nature of the series: Inhibition of equine serum BuChE at 10 uM using butyrylthiocholine iodide as substrate preincubated for 5 mins followed by substrate addition and measured every min for 10 mins by Ellman's method relative to control. In kind it is cell-free. The settings on record: time 15.0 min.
Chain of Cholinesterase (Equus caballus) (P81908 whole entry): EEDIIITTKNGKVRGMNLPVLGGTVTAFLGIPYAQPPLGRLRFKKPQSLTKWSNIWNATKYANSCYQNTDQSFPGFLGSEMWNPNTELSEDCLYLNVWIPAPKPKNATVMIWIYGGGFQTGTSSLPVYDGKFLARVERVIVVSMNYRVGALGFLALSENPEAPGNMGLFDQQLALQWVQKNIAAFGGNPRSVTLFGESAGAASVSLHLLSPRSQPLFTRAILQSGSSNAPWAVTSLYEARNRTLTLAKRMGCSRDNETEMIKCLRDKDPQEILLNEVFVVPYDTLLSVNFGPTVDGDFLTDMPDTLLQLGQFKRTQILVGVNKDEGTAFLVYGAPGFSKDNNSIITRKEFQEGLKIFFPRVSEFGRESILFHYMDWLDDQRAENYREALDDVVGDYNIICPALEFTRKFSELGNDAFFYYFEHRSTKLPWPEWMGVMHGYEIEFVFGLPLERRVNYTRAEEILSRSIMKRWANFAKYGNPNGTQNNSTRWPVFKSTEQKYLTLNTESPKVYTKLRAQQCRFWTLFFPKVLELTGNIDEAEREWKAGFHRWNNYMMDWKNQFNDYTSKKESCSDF

Chain of Cholinesterase (P81908 whole entry): as above

In the case of `CCCCCCCNC(=O)Oc1ccc2c(c1)N(Cc1ccc3ccccc3c1)/C(=C/C(C)=O)S2`, in [1], the concentration for half-maximal inhibition (IC50) is > 10000 nM.

In [1], `CCCCCCNC(=O)Oc1ccc2c(c1)N(Cc1ccccc1)/C(=C/C(C)=O)S2` gave an IC50 of 470 nM. Further, the inhibition in series [2] is < 10%.

Turning to `CCCCCCCNC(=O)Oc1ccc2c(c1)N(Cc1cccc(OC)c1)/C(=C/C(C)=O)S2`, half-maximal inhibition in series [1] (IC50) was put at 2190 nM.

Consider `CCCCCCCNC(=O)Oc1ccc2c(c1)N(Cc1cccc(Cl)c1)/C(=C/C(C)=O)S2`, for which the IC50 in series [1] stood at 703 nM.

`CC(=O)/C=C1\Sc2ccc(O)cc2N1CCc1ccccc1`: the half-maximal inhibitory concentration (IC50) in series [3] worked out at 106 nM; in [4] it was 17 nM.

In series [1], `CCCCCCCNC(=O)Oc1ccc2c(c1)N(Cc1ccccc1)/C(=C/C(C)=O)S2` had a half-maximal inhibitory concentration (IC50) of 154 nM. Further, the inhibition in series [2] was < 10%.

In series [1], `CCCCCCCNC(=O)Oc1ccc2c(c1)N(Cc1ccc(Cl)cc1)/C(=C/C(C)=O)S2` gave a half-maximal inhibitory concentration (IC50) of 821 nM.

As to `CC(=O)/C=C1\Sc2ccc(O)cc2N1Cc1ccc2ccccc2c1`, the inhibition is 24% in series [5] and 72% in series [6].

In the case of `COc1cccc(CN2/C(=C/C(C)=O)Sc3ccc(O)cc32)c1`, the IC50 in [3] worked out at 883 nM; in series [4], 76 nM.

`CCCCCCCNC(=O)Oc1ccc2c(c1)N(CC)/C(=C/C(C)=O)S2` showed an IC50 in series [1] of 1640 nM.

Turning to `CC(=O)/C=C1\Sc2ccc(O)cc2N1Cc1ccccc1`, the half-maximal inhibitory concentration (IC50) in series [3] stood at 529 nM; in series [4], 54 nM.

Compound `CCN(C)C(=O)Oc1ccc2c(c1)N(CCc1ccccc1)/C(=C/C(C)=O)S2` registered a 50% inhibitory concentration (IC50) in [1] of 439 nM. The inhibition in series [2] is < 10%.

`CC(=O)/C=C1\Sc2ccc(O)cc2N1Cc1cccc(C)c1`: the half-maximal inhibitory concentration (IC50) in series [3] came out at 429 nM; in series [4], 39 nM.

In the case of `CC(=O)/C=C1\Sc2ccc(O)cc2N1Cc1ccc(Cl)cc1`, the inhibition in series [5] turned out to be 75%. The IC50 in [4] came out at 40 nM.

As to `CCN1/C(=C/C(C)=O)Sc2ccc(OC(=O)NCCc3ccccc3)cc21`, the 50% inhibitory concentration (IC50) turned out to be 6000 nM in series [1] and 20000 nM in [7].

`CCN1/C(=C/C(C)=O)Sc2ccc(OC(=O)NC3CCCCC3)cc21`: the IC50 was determined as 13000 nM in series [1] and 11000 nM in series [7].

With `CCCCCCCNC(=O)Oc1ccc2c(c1)N(Cc1cccc(C)c1)/C(=C/C(C)=O)S2`, the IC50 in [1] amounted to 761 nM.

`CC(=O)/C=C1\Sc2ccc(O)cc2N1Cc1cccc(Cl)c1`: the figures for the 50% inhibitory concentration (IC50) in series [3] and in [4] were 885 nM and 33 nM, respectively.

With `CCCCCCNC(=O)Oc1ccc2c(c1)N(CC)/C(=C/C(C)=O)S2`, the IC50 in [1] amounted to 2000 nM; in series [7] it was 14000 nM.

For `CCN(C)C(=O)Oc1ccc2c(c1)N(Cc1ccccc1)/C(=C/C(C)=O)S2`, in series [1], the IC50 was found to be 68 nM. Further, in [2], the inhibition was < 10%. The compound further came in with a chromatographic logD in series [8] of 3. In addition, in series [9], the solubility result was “Soluble”.

As for `CCN1/C(=C/C(C)=O)Sc2ccc(OC(=O)N(C)C)cc21`, the 50% inhibitory concentration (IC50) in [1] is > 10000 nM. Moreover, in [10], the inhibition was 25%.

As to `CCCCNC(=O)Oc1ccc2c(c1)N(Cc1ccccc1)/C(=C/C(C)=O)S2`, the IC50 in series [1] was > 10000 nM. In [10], the inhibition is 22%.

In turn, `CCCCCCCNC(=O)Oc1ccc2c(c1)N(CCc1ccccc1)/C(=C/C(C)=O)S2` came in with an IC50 in series [1] of 26.7 nM. Further, in series [2], the inhibition was < 10%. The chromatographic logD in series [8] was 4.36.

For `CCN1/C(=C/C(C)=O)Sc2ccc(OC(=O)NCc3cccnc3)cc21`, the IC50 in [1] came to 12000 nM; in series [7], 34000 nM.

The values are drawn from ChEMBL document CHEMBL5335844, “Design, synthesis and preliminary biological evaluation of rivastigmine-INDY hybrids as multitarget ligands against Alzheimer's disease by targeting butyrylcholinesterase and DYRK1A/CLK1 kinases” (RSC Med Chem, 2024).
